Measurements taken from US20120129897A1, “BIS HETEROARYL INHIBITORS OF PRO-MATRIX METALLOPROTEINASE ACTIVATION” (priority 2010, published 2012).

Tested on: female Lewis rats with SCW-induced arthritis
Experiment: Efficacy in rats with SCW-induced arthritis (ankle thickness, clinical scores)
Assay type: in vivo, rat
Conditions: 5, 20, 50 mg/kg BID oral, Day 18-26
From the text: A polyarthritis can be induced in female Lewis rats following i.p. administration of streptococcal cell wall (SCW) […] (PG-PS) (J Exp Med 1977; 146:1585-1602). The model has an acute phase (days 3-7) that is complement and neutrophil-dependent and that resolves. A chronic erosive phase begins at about day ten and is dependent on the development of specific T cell immunity to the PG-GS, which resists digestion and remains present in synovial macrophages for months. Like rheumatoid arthritis, SCW-induced arthritis is reduced by TNF inhibitors, and the dependence of SCW-induced arthritis on macrophages (Rheumatology; 2001; 40:978-987) and the strong association of rheumatoid arthritis severity with synovial-tissue macrophage counts (Ann Rheum Dis; 2005; 64:834-838) makes SCW-arthritis an attractive model for testing potential therapeutic agents. SCW PG-PS 10S (Beckton Dickinson Cat#210866) suspended in saline was vortexed for 30 seconds and sonicated for 3 min with a probe type sonicator prior to injection. […]
To induce arthritis, Female Lewis (LEW/N) rats, 5-6 weeks of age (80-100 g) were injected (i.p.) with SCW PG-PS as described above. […] Each ankle was measured 3 times and averaged, and treatment groups were randomized based on ankle thickness (Table 6). […]

Compound: Cc1nc(C)c(-c2csc(Nc3cc(S(N)(=O)=O)ccc3OC(C)C)n2)s1 [Compound-α, 3-(2′,4′-Dimethyl-[4,5′]bithiazolyl-2-ylamino)-4-isopropoxy-benzenesulfonamide.HBr]
- Ankle thickness measurements, effect of treatment: dose-dependent decrease in ankle thickness measurements
- Clinical score measurements, effect of treatment: dose dependent decrease in clinical score measurements
